The source of these data is patent US20110152178A1 (priority 2008, published 2011).

“Also recorded” adds a separate entry of the source. Peptide text beside a SMILES is read from it. * marks the point of attachment. Stearoyl = CCCCCCCCCCCCCCCCCC(=O)* Where only a bound is given, the exact number is not on record here.

In data set [1] the test system is influenza virus A/PR/8/34 (H1N1). Kind of data set: Plaque assay on MDCK cells, inhibition of influenza virus infection (H1N1). It counts as cell-based, influenza type A virus. The settings on record: for IC50: H1N1, plaque assay on MDCK cells; for anti-influenza virus activity in vitro: MDCK plaque assay. How it is done: (§1) Inhibition of influenza virus infection was determined by a plaque assay on MDCK cells. The MDCK cells in 6-well plates were incubated with 0.2 mL of influenza virus A/PR/8/34 solutions (100 to 200 pfu; pfu denotes plaque-forming units; subtype H1N1) or influenza virus A/Victria/1/75 solutions (100-200 pfu; subtype H3N2) each containing C18-D1, S2 (H-ARLPRTMVHPKPAQP-NH2), C18-S2 (stearoyl-ARLPRTMVHPKPAQP-NH2), or D1 (H-GLAMAPSVGHVRQHG-NH2). After incubation at 37° C. under 5% CO2 for 30 minutes, the supernatant was removed, and the cells were washed with PBS. 2 mL (per well) of 2×MEM+BSA containing 0.6% agarose, 0.01% of O-diethylaminoethyl cellulose dextran, 0.1% NaHCO3, and 0.01 μg/mL of acetyl trypsin was added, and the cells were incubated for two days. Viable cells were stained with a crystal violet solution (1 mg/mL in 20% ethanol), and the number of plaques was counted. The maximum infection activity (100%) was defined as the number of plaques in the case of the absence of C18-D1. The IC50 value (50% inhibitory concentration) of C18-D1 was obtained from the plot between log [f/(1−f)] and log [C18-D1], wherein f is the percent infection activity. The IC50 values of S2, C18-S2, and D1 were calculated in a similar manner.

The test system of data set [2] is influenza virus A/Victria/1/75 (H3N2). The data set can be described thus: Plaque assay on MDCK cells, inhibition of influenza virus infection (H3N2). It is filed as cell-based, influenza type A virus. The protocol: as §1
Data set [3] is described as follows: Critical micelle concentration by NPN fluorescence in PBS. It counts as physicochemical. Conditions: PBS (pH 7.5), 1 μM NPN. How it is done: The critical micelle concentration (CMC) of the purified C18-D1 was determined in the following manner. PBS (pH 7.5) containing 1 μM of N-phenyl-1-naphthylamine (hereinafter abbreviated as “NPN”) was prepared. A C18-D1 peptide stock solution (1 mM) was serially diluted to final concentrations of […], 10, and 30 μM. These solutions were excited by a wavelength of 350 nm, and the fluorescence intensity (FI) at 450 nm was measured. The difference in FI between each diluted peptide solution and PBS alone was plotted as the ordinate, and the peptide solutions were plotted as the abscissa. The concentration at the intersection of the high concentration curve and the low concentration curve was determined. The critical micelle concentration (CMC) of the intersection was 1.3 μM.

Data set [4] concerns influenza virus (H1N1). More on the design: species or system mice. The settings on record: mouse.
Data set [5] has as its target hemagglutinin of influenza type A virus A/PR/8/34 (H1N1) (influenza A virus A/PR/8/34 (H1N1)) (UniProt P03452). The data set can be described thus: cell-based or functional assay.
Data set [6] has as its target hemagglutinin of influenza type A virus A/Victria/1/75 (H3N2) (influenza A virus A/Victria/1/75 (H3N2)). Kind of data set: cell-based or functional assay.

As to `CCCCCCCCCCCCCCCCCC(=O)NCC(=O)N[C@@H](CC(C)C)C(=O)N[C@@H](C)C(=O)N[C@@H](CCSC)C(=O)N[C@@H](C)C(=O)N1CCC[C@H]1C(=O)N[C@@H](CO)C(=O)N[C@H](C(=O)NCC(=O)N[C@@H](Cc1c[nH]cn1)C(=O)N[C@H](C(=O)N[C@@H](CCCNC(=N)N)C(=O)N[C@@H](CCC(N)=O)C(=O)N[C@@H](Cc1c[nH]cn1)C(=O)NCC(N)=O)C(C)C)C(C)C` [C18-D1, (stearoyl)-Gly Leu Ala Met Ala Pro Ser Val Gly His Val Arg Gln His Gly-NH2] (Stearoyl-GLAMAPSVGHVRQHG-NH2), the IC50 in data set [1] is 11 µM; in data set [2] (H3N2, plaque assay on MDCK cells) it was 7.5 µM. The “anti-influenza virus activity in vitro” value in data set [1] is on record as “inhibited”; in data set [1] (listed as 018-D1) it was “excellent anti-influenza virus activity”. Besides, the “infection of MDCK cells with H3N2” value in data set [2] (in vitro, MDCK plaque assay) is “inhibited”. Moreover, in data set [3], the “critical micelle concentration (CMC)” value worked out at 1.3 µM. This molecule showed a mice survived in data set [4] (in vivo) of at least 80%.
Consider `CCCCCCCCCCCCCCCCCC(=O)N[C@@H](C)C(=O)N[C@@H](CCCNC(=N)N)C(=O)N[C@@H](CC(C)C)C(=O)N1CCC[C@H]1C(=O)N[C@@H](CCCNC(=N)N)C(=O)N[C@H](C(=O)N[C@@H](CCSC)C(=O)N[C@H](C(=O)N[C@@H](Cc1c[nH]cn1)C(=O)N1CCC[C@H]1C(=O)N[C@@H](CCCCN)C(=O)N1CCC[C@H]1C(=O)N[C@@H](C)C(=O)N[C@@H](CCC(N)=O)C(=O)N1CCC[C@H]1C(N)=O)C(C)C)[C@@H](C)O` [C18-S2, stearoyl ARLPRTMVHPKPAQP-NH2] (Stearoyl-ARLPRTMVHPKPAQP-NH2), for which, in data set [1], the midpoint of inhibition, the IC50, lay at 10 µM and the “anti-influenza virus activity in vitro” value is reported as “potent anti-influenza virus effect in vitro; also recorded: excellent anti-influenza virus activity”. Also, the “in vivo effect on influenza virus infection” value in data set [4] is reported as “ineffective in vivo; also recorded: caused early mortality”.
Take “H-GLAMAPSVGHVRQHG-NH2 [D1-NH2, H-GLAMAPSVGHVRQHG-NH2]”: in data set [1], the IC50 is above 100 µM.
The same measure, in the same setting: the result for “H-ARLPRTMVHPKPAQP-NH2 [S2-NH2, H-ARLPRTMVHPKPAQP-NH2]” reads above 100 µM.
For the molecule Stearoyl-GLAMAPSVGHVRQHG-NH2 [C18-D1 (stearoyl-Gly Leu Ala Met Ala Pro Ser Val Gly His Val Arg Gln His Gly-NH2), as self-assembly], the IC50 (plaque assay on MDCK cells, inhibition of influenza virus infection) in data set [5] was 11 µM; in data set [6], 7.5 µM.
